Measurements published in PubChem BioAssay AID1963440 (Molecular Pharmacology Branch, DTP, NCI, 2024).
Several values for one entry are separate records, joined by “and”; a condition that tells them apart may be missing. Equal values may be shown once.

Tested on: NCI-H1417 complex spheroids, growth % test/control
Assay: Anticancer human tumor NCI-H1417 cell line growth inhibition [Asc];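 also: spheroids exposed to compounds for 7 days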;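 as to viability, T/C: 100% = DMSO vehicle control wells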
Conditions: for viability, T/C: stronger effect = lower value
Outline: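 Tumor cells were grown as multicellular spheroids with stromal HUVEC and mesenchymal stem cells and treated singly or in combination. Concentrations fell in half-log steps from the clinical Cmax, or from 10 microM where none was known.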

[1] = curve of first compound, second compound 0.01 µM
[2] = curve of first compound, second compound 0.0316 µM
[3] = curve of first compound, second compound 0.1 µM
[4] = curve of first compound, second compound 0.316 µM
[5] = curve of first compound, second compound 1 µM
[6] = second compound 0.01 µM, first compound 0.00316 µM
[7] = second compound 0.01 µM, first compound 0.01 µM
[8] = second compound 0.01 µM, first compound 0.0316 µM
[9] = second compound 0.01 µM, first compound 0.1 µM
[10] = second compound 0.0316 µM, first compound 0.00316 µM
[11] = second compound 0.0316 µM, first compound 0.01 µM
[12] = second compound 0.0316 µM, first compound 0.0316 µM
[13] = second compound 0.0316 µM, first compound 0.1 µM
[14] = second compound 0.1 µM, first compound 0.00316 µM
[15] = second compound 0.1 µM, first compound 0.01 µM
[16] = second compound 0.1 µM, first compound 0.0316 µM
[17] = second compound 0.1 µM, first compound 0.1 µM
[18] = second compound 0.316 µM, first compound 0.00316 µM
[19] = second compound 0.316 µM, first compound 0.01 µM
[20] = second compound 0.316 µM, first compound 0.0316 µM
[21] = second compound 0.316 µM, first compound 0.1 µM
[22] = second compound 1 µM, first compound 0.00316 µM
[23] = second compound 1 µM, first compound 0.01 µM
[24] = second compound 1 µM, first compound 0.0316 µM
[25] = second compound 1 µM, first compound 0.1 µM

NC1CCC(NC2CC2c2ccccc2)CC1 (stereo unspecified) + CNC(C)C(=O)NC1CN(S(=O)(=O)c2cccc(S(=O)(=O)N3CCC4CCC(C(=O)NC(c5ccccc5)c5ccccc5)N4C(=O)C(NC(=O)C(C)NC)C3)c2)CCC2CCC(C(=O)NC(c3ccccc3)c3ccccc3)N2C1=O
IC50 [1]: > 100 nM
IC50 [2]: > 100 nM
IC50 [3]: > 100 nM
IC50 [4]: > 100 nM
IC50 [5]: > 100 nM
viability, T/C (second compound 0.01 µM, first compound 0.000316 µM): 93.4%
viability, T/C (second compound 0.01 µM, first compound 0.001 µM): 92.8%
viability, T/C [6]: 88.7%
viability, T/C [7]: 89.4%
viability, T/C [8]: 84.2%
viability, T/C [9]: 91%
viability, T/C (second compound 0.0316 µM, first compound 0.000316 µM): 106%
viability, T/C (second compound 0.0316 µM, first compound 0.001 µM): 80.6%
viability, T/C [10]: 91.8%
viability, T/C [11]: 81.8%
viability, T/C [12]: 80.2%
viability, T/C [13]: 80.4%
viability, T/C (second compound 0.1 µM, first compound 0.000316 µM): 84.8%
viability, T/C (second compound 0.1 µM, first compound 0.001 µM): 91%
viability, T/C [14]: 85.5%
viability, T/C [15]: 81.4%
viability, T/C [16]: 82.9%
viability, T/C [17]: 89.7%
viability, T/C (second compound 0.316 µM, first compound 0.000316 µM): 87.6%
viability, T/C (second compound 0.316 µM, first compound 0.001 µM): 99.3%
viability, T/C [18]: 82%
viability, T/C [19]: 80.8%
viability, T/C [20]: 88.1%
viability, T/C [21]: 105%
viability, T/C (second compound 1 µM, first compound 0.000316 µM): 97.2%
viability, T/C (second compound 1 µM, first compound 0.001 µM): 88.5%
viability, T/C [22]: 89.7%
viability, T/C [23]: 88%
viability, T/C [24]: 84%
viability, T/C [25]: 90.2%

C=CC(=O)N1CCN(c2nc(=O)n(-c3c(C)ccnc3C(C)C)c3nc(-c4c(O)cccc4F)c(F)cc23)C(C)C1 (stereo unspecified)
viability, T/C (compound 0.0316 µM): 111% and 108% and 110%
viability, T/C (compound 0.1 µM): 105% and 90.2% and 96.7%
viability, T/C (compound 0.316 µM): 112% and 98.4% and 106%
viability, T/C (compound 1 µM): 111% and 105% and 101%
viability, T/C (compound 3.16 µM): 99.4% and 104% and 103%
viability, T/C (compound 10 µM): 99.5% and 102% and 94.5%
IC50 (curve of compound): > 10000 nM

COc1c(OCCCN2CCOCC2)ccc2c3n(c(=NC(=O)c4cnc(N)nc4)nc12)CCN3 + CNC(C)C(=O)NC1CN(S(=O)(=O)c2cccc(S(=O)(=O)N3CCC4CCC(C(=O)NC(c5ccccc5)c5ccccc5)N4C(=O)C(NC(=O)C(C)NC)C3)c2)CCC2CCC(C(=O)NC(c3ccccc3)c3ccccc3)N2C1=O
IC50 [1]: > 1000 nM
IC50 [2]: > 1000 nM
IC50 [3]: > 1000 nM
IC50 [4]: > 1000 nM
IC50 [5]: > 1000 nM
viability, T/C [6]: 95.5%
viability, T/C [7]: 109%
viability, T/C [8]: 100%
viability, T/C [9]: 82.3%
viability, T/C (second compound 0.01 µM, first compound 0.316 µM): 79.4%
viability, T/C (second compound 0.01 µM, first compound 1 µM): 58.4%
viability, T/C [10]: 96.1%
viability, T/C [11]: 93.8%
viability, T/C [12]: 91.1%
viability, T/C [13]: 78.5%
viability, T/C (second compound 0.0316 µM, first compound 0.316 µM): 77.2%
viability, T/C (second compound 0.0316 µM, first compound 1 µM): 57.8%
viability, T/C [14]: 95.4%
viability, T/C [15]: 96.5%
viability, T/C [16]: 96.6%
viability, T/C [17]: 81.1%
viability, T/C (second compound 0.1 µM, first compound 0.316 µM): 71.4%
viability, T/C (second compound 0.1 µM, first compound 1 µM): 53.8%
viability, T/C [18]: 99.4%
viability, T/C [19]: 97.7%
viability, T/C [20]: 87.2%
viability, T/C [21]: 74.1%
viability, T/C (second compound 0.316 µM, first compound 0.316 µM): 69.2%
viability, T/C (second compound 0.316 µM, first compound 1 µM): 56.4%
viability, T/C [22]: 97.7%
viability, T/C [23]: 99%
viability, T/C [24]: 90.1%
viability, T/C [25]: 83.4%
viability, T/C (second compound 1 µM, first compound 0.316 µM): 77.2%
viability, T/C (second compound 1 µM, first compound 1 µM): 56.4%

Cn1ncnc1[C@H]1c2n[nH]c(=O)c3cc(F)cc(c23)N[C@@H]1c1ccc(F)cc1 + CCN1C(C(=O)NC23CCC(C(=O)O)(CC2)CC3)C(c2cccc(Cl)c2F)C2(C(=O)Nc3cc(Cl)ccc32)C12CCCCC2
IC50 (curve of first compound, second compound 0.03 µM): 36.5 nM
IC50 (curve of first compound, second compound 0.0949 µM): 13.9 nM
IC50 (curve of first compound, second compound 0.3 µM): 9.66 nM
IC50 (curve of first compound, second compound 0.949 µM): 12.9 nM
IC50 (curve of first compound, second compound 3 µM): 10 nM
viability, T/C (second compound 0.03 µM, first compound 0.000316 µM): 99.3%
viability, T/C (second compound 0.03 µM, first compound 0.001 µM): 94%
viability, T/C (second compound 0.03 µM, first compound 0.00316 µM): 87.5%
viability, T/C (second compound 0.03 µM, first compound 0.01 µM): 66%
viability, T/C (second compound 0.03 µM, first compound 0.0316 µM): 52.6%
viability, T/C (second compound 0.03 µM, first compound 0.1 µM): 42%
viability, T/C (second compound 0.0949 µM, first compound 0.000316 µM): 91.8%
viability, T/C (second compound 0.0949 µM, first compound 0.001 µM): 91.7%
viability, T/C (second compound 0.0949 µM, first compound 0.00316 µM): 90%
viability, T/C (second compound 0.0949 µM, first compound 0.01 µM): 52.3%
viability, T/C (second compound 0.0949 µM, first compound 0.0316 µM): 49.9%
viability, T/C (second compound 0.0949 µM, first compound 0.1 µM): 38.1%
viability, T/C (second compound 0.3 µM, first compound 0.000316 µM): 94.5%
viability, T/C (second compound 0.3 µM, first compound 0.001 µM): 90.4%
viability, T/C (second compound 0.3 µM, first compound 0.00316 µM): 79.2%
viability, T/C (second compound 0.3 µM, first compound 0.01 µM): 48.5%
viability, T/C (second compound 0.3 µM, first compound 0.0316 µM): 43.6%
viability, T/C (second compound 0.3 µM, first compound 0.1 µM): 39.9%
viability, T/C (second compound 0.949 µM, first compound 0.000316 µM): 83.6%
viability, T/C (second compound 0.949 µM, first compound 0.001 µM): 87.8%
viability, T/C (second compound 0.949 µM, first compound 0.00316 µM): 75.8%
viability, T/C (second compound 0.949 µM, first compound 0.01 µM): 55.1%
viability, T/C (second compound 0.949 µM, first compound 0.0316 µM): 34.4%
viability, T/C (second compound 0.949 µM, first compound 0.1 µM): 34.8%
viability, T/C (second compound 3 µM, first compound 0.000316 µM): 80%
viability, T/C (second compound 3 µM, first compound 0.001 µM): 80.8%
viability, T/C (second compound 3 µM, first compound 0.00316 µM): 76.3%
viability, T/C (second compound 3 µM, first compound 0.01 µM): 49.6%
viability, T/C (second compound 3 µM, first compound 0.0316 µM): 39.6%
viability, T/C (second compound 3 µM, first compound 0.1 µM): 34.5%

CCN1CCN(Cc2ccc(Nc3ncc(F)c(-c4cc(F)c5nc(C)n(C(C)C)c5c4)n3)nc2)CC1
viability, T/C (compound 0.00316 µM): 99.3% and 89.7% and 102%
viability, T/C (compound 0.01 µM): 95.8% and 105% and 93.8%
viability, T/C (compound 0.0316 µM): 99.9% and 102% and 101%
viability, T/C (compound 0.1 µM): 96.5% and 111% and 105%
viability, T/C (compound 0.316 µM): 92.8% and 84.3% and 97.3%
viability, T/C (compound 1 µM): 91.7% and 81% and 79.7%
IC50 (curve of compound): > 1000 nM

Cn1ncnc1[C@H]1c2n[nH]c(=O)c3cc(F)cc(c23)N[C@@H]1c1ccc(F)cc1
viability, T/C (compound 0.000316 µM): 101% and 113% and 97.4%
viability, T/C (compound 0.001 µM): 90.8% and 116% and 85%
viability, T/C (compound 0.00316 µM): 81.6% and 87.3% and 69.7%
viability, T/C (compound 0.01 µM): 70.8% and 75.9% and 67.2%
viability, T/C (compound 0.0316 µM): 56.4% and 77% and 57%
viability, T/C (compound 0.1 µM): 44% and 79.8% and 30.6%
IC50 (curve of compound): 58.2 nM and > 100 nM and 32.1 nM
